Data set [1] concerns the target T1, CFTR Cl− channel (Rattus norvegicus, UniProt P34158).
T1 construct: from tissue; host or cells: rat colon mucosa strips
The experiment in a line: Short-circuit current in isolated rat colonic mucosa. Particulars: amiloride, forskolin 20 μM.

The test system of data set [2] is FRT cells. Description: Cell toxicity by the dihydrorhodamine method. Particulars: after 24 hours, dihydrorhodamine assay.
The test system of data set [3] is phosphatase activity. The experiment in a line: Phosphatase assay. The note with it: 5 μM.
The subject of data set [4] is cellular cAMP production. Description: Intracellular cAMP assay in FRT cells.
In data set [5] the test system is Volume-sensitive Cl− channels. Description: Volume-activated Cl− current, whole-cell patch clamp on FRT cells. The class given is cell-based, rat. Particulars: 5 μM; 250 mosM/kg hypotonic solution. The text has this: FIG. 4B is a graphical representation of volume-activated Cl^− current (hypotonic 250 mosM/kg H2O) measured in whole-cell patch clamp experiments on FRT cells.
A general note: The patch-clamp technique gives a direct electrical read-out from membranes.

The target of data set [6] is MDR-1 (Homo sapiens, UniProt P08183).
Data set [7] addresses T2, water channel (AQP1) (Homo sapiens, UniProt P29972).
T2 sequence (P29972 1-269): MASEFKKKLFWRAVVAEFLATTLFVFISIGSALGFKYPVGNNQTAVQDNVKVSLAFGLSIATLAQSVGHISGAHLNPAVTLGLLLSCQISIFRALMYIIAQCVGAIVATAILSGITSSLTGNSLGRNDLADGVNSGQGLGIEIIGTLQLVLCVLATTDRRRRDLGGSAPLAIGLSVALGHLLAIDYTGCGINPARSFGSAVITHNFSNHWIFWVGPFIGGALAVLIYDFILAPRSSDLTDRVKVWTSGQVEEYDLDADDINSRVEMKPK
The experiment in a line: Additional specificity study: water channel. The note with it: 5 μM.

Data set [8] has as its system Calcium-sensitive Cl− channels. The experiment in a line: UTP-stimulated Ca2+-dependent Cl− secretion, short-circuit current in human bronchial epithelial cells. The class given is cell-based.
Data set [9] has as its target T3, urea transporter (UT-B) (Homo sapiens, UniProt Q13336).
T3 sequence (Q13336 1-389): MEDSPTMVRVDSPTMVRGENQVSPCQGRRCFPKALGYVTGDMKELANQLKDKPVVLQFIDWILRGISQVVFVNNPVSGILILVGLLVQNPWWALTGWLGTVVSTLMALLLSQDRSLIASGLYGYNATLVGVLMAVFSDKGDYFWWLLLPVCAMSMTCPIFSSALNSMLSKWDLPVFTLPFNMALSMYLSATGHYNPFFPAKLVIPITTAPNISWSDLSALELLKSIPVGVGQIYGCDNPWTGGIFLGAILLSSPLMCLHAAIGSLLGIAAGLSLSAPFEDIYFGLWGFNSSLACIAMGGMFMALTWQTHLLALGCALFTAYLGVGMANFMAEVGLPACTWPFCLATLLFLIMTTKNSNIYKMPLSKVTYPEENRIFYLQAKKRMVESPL
Description: Additional specificity study: urea transporter. The note with it: 5 μM.

Data set [10] relates to cholera toxin-induced intestinal fluid secretion. Further details: species or system mice. The note with it: mouse, in vivo, ip.
Data set [11] can be described thus: Animal toxicity in mice. The class given is in vivo.
The target in data set [12] is T4, Cl−/HCO3− exchanger (AEI) (Homo sapiens, UniProt P02730).
T4 sequence (P02730 1-911): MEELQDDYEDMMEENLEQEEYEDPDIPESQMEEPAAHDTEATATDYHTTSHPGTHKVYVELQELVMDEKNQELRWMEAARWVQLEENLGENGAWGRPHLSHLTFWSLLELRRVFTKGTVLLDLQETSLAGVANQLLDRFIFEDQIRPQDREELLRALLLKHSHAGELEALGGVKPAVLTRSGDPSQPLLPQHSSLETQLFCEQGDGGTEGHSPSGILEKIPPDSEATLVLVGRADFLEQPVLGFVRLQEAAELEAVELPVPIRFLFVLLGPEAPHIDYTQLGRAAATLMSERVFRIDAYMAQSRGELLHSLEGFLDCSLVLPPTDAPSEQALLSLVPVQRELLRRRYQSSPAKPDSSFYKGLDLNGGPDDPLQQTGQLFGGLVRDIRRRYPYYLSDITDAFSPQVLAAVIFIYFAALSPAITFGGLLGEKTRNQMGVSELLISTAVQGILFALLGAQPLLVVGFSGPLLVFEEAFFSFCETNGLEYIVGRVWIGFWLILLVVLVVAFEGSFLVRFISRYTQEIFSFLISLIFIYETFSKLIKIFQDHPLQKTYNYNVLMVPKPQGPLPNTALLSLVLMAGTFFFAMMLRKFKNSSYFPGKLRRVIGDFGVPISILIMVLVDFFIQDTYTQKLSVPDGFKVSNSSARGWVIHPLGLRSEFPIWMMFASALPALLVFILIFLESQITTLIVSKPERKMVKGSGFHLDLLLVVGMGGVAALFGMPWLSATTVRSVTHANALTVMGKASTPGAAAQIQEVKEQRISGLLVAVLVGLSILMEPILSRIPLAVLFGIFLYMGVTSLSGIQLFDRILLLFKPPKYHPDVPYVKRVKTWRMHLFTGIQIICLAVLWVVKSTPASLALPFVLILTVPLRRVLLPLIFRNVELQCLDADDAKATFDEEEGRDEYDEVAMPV
Description: Additional specificity study: Cl−/HCO3− exchanger. The note with it: 5 μM.

Data set [13] concerns the target T5, Na+/H+ exchanger (NEE3) (Homo sapiens, UniProt P48764).
T5 sequence (P48764 26-834): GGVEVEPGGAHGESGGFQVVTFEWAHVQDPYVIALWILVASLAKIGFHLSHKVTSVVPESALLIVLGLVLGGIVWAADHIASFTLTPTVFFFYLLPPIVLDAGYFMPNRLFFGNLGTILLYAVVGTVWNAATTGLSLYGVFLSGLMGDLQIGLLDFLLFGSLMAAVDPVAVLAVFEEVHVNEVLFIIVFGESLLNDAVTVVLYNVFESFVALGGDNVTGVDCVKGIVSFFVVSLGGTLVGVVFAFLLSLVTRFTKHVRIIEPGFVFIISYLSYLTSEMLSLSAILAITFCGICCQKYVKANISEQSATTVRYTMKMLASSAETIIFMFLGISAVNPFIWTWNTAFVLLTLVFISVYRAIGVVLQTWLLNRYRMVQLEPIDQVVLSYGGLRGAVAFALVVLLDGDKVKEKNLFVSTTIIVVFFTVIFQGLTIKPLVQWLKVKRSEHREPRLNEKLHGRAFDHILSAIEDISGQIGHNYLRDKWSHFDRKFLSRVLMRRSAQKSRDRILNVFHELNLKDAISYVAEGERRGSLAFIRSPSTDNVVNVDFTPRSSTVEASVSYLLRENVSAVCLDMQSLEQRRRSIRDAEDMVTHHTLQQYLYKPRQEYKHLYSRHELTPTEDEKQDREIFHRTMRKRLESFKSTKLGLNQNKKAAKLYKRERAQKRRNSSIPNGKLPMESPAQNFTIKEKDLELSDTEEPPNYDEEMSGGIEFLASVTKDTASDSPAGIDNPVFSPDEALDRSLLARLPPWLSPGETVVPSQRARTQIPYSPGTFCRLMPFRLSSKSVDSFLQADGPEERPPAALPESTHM
The experiment in a line: Additional specificity study: Na+/H+ exchanger. The note with it: 5 μM.

The target in data set [14] is T6, human wildtype CFTR (Homo sapiens, UniProt P13569).
T6 construct: expressed in transfected cells; host or cells: Fischer rat thyroid (FRT) cells, stably transfected, co-expressing YFP-H148Q
The experiment in a line: YFP fluorescence assay of CFTR-mediated I− transport in FRT cells. The class given is cell-based. The note with it: relative to CFTRinh-172 = 1.0.

The mark [15] stands for this setting: mice, intraperitoneal 1000 μg/kg daily for 7 days.

Entries after “also recorded” stand apart in the source; their conditions may differ. Read-outs that look alike come from different tables or passages of the source.

T1 sequence (P34158 whole entry): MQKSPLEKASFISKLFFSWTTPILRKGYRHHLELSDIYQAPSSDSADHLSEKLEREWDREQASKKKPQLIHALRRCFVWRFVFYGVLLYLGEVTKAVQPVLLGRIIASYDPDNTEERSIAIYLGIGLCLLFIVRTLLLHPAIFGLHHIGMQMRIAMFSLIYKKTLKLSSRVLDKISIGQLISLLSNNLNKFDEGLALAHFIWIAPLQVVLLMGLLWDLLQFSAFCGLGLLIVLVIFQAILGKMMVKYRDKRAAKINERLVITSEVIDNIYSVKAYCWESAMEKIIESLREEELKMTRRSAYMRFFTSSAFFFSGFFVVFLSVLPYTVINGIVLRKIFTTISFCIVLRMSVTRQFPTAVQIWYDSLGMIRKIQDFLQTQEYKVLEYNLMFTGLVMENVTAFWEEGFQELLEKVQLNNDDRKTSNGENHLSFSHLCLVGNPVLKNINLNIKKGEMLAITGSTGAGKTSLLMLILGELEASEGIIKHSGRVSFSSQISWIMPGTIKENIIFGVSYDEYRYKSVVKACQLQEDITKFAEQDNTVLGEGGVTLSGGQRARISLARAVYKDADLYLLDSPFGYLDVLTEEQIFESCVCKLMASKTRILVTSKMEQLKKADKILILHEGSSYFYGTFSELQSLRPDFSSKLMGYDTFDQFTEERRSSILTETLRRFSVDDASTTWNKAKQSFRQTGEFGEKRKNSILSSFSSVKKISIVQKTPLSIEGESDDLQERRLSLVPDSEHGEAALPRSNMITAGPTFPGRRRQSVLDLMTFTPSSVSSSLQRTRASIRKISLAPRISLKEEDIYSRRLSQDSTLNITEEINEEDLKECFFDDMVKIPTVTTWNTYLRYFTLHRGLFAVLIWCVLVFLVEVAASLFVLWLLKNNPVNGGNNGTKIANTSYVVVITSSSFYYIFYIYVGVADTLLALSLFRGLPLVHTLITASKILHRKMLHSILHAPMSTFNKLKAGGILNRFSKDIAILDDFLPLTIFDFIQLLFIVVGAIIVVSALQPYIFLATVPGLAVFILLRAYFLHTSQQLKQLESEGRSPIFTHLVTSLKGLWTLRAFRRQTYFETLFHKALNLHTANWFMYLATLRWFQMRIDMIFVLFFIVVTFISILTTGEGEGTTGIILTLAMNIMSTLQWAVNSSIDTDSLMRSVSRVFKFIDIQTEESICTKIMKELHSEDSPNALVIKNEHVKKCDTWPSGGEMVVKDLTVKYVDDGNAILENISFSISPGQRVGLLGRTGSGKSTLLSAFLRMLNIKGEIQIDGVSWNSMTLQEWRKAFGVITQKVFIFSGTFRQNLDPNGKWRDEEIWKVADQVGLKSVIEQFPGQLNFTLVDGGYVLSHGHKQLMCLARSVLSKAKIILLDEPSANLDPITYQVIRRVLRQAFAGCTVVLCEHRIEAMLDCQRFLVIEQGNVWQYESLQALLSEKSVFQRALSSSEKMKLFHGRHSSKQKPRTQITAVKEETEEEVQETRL
Chain of MDR-1 (P08183 whole entry): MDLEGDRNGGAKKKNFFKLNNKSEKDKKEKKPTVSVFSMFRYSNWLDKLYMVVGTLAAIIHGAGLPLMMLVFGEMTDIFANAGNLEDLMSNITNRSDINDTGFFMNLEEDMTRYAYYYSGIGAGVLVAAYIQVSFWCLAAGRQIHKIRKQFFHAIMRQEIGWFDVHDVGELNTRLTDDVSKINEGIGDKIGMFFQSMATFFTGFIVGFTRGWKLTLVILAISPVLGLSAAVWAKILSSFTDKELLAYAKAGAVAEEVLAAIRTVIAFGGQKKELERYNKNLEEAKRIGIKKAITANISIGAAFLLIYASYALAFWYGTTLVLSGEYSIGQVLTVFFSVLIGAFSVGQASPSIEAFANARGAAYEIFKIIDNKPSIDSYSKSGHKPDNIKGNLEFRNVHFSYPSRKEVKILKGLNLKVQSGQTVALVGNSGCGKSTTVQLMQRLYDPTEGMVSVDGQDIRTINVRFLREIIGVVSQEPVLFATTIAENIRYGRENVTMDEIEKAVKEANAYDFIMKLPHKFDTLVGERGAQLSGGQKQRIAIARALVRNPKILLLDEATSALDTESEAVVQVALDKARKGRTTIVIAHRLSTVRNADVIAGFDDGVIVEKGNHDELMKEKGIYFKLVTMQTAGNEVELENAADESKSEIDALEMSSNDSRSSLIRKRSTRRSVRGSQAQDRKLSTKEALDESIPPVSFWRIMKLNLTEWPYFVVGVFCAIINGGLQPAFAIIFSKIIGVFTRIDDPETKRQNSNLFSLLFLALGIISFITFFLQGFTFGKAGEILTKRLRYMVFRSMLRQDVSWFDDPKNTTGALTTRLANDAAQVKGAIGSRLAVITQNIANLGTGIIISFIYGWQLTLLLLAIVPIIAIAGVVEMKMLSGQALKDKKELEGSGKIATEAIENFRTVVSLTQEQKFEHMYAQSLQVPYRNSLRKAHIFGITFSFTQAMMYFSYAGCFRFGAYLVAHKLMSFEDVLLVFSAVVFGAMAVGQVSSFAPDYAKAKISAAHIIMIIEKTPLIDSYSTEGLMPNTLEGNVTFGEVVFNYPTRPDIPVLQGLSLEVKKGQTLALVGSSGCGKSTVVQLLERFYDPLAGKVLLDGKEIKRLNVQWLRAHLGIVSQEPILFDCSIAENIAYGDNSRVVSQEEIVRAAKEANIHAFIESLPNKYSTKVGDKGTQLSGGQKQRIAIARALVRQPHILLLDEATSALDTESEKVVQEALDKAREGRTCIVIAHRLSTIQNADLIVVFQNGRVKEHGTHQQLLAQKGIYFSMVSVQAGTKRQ

Turning to “3-[(3-trifluoromethyl)phenyl]-5-[(4-carboxyphenyl)methylene]-2-thioxo-4-thiazolidinone [CFTRinh-172]”, the “reduction of short-circuit current” value in data set [1] (5 μM in mucosal solution alone) is recorded as above 80%. In addition, the “efficacy of short-circuit current inhibition, mucosal vs. serosal addition” value in data set [1] is “greater efficacy”. Further, the “concentrations non-toxic to FRT cells” value in [2] is “up to 100 μM”. In data set [3], the “effect on phosphatase activity” value is “did not affect”. Further, the “effect on cellular cAMP production” value in [4] (5 μM) is given as “did not affect”. Further, the cAMP content in [4] (30 min after 20 μM forskolin, + inhibitor (n=3)) amounted to 1140±50 fmol/well. Moreover, in data set [5], the “effect on volume-activated Cl− currents” value is “did not block”. In addition, in data set [6] (5 μM), the vincristine accumulation entry is recorded as “did not affect vincristine accumulation”. For the same molecule, the “block of water channel (AQP1)” value in data set [7] is reported as “did not block”. In addition, in data set [8] (5 μM, UTP 100 μM apical), the “effect on Ca2+ activated Cl− secretion” value is reported as “did not inhibit”. In addition, the “maximal UTP-dependent short-circuit current” value in data set [8] (in the presence of 5 μM inhibitor (SE, n=4)) is 10.0±0.2 μA/cm^2. The “block of urea transporter (UT-B)” value in data set [9] was “did not block”. Also, the “fluid accumulation in cholera toxin-treated ileal loops” value in [10] is on record as “effectively prevented fluid accumulation; also recorded: significantly reduced fluid secretion to that in saline control loops”. Besides, in [11] (setting [15]), the “food and water intake” value is recorded as “not diminished”; the overt toxicity result was “did not cause overt toxicity”; the “serum electrolyte concentrations, glucose, liver function indices, serum creatinine, amylase and hematocrit” value was “not changed”. For the same molecule, the overt toxicity result in [11] (single systemic dose 10 mg/kg) is given as “did not cause overt toxicity”. The “block of Cl−/HCO3− exchanger (AEI)” value in data set [12] is reported as “did not block”. For the same molecule, the “block of Na+/H+ exchanger (NEE3)” value in data set [13] is listed as “did not block”.

With `O=C(O)c1ccccc1C=C1SC(=S)N(c2ccccc2C(F)(F)F)C1=O` [2, 3, 3-[(a-trifluoromethyl)phenyl]-5-[(b-carboxyphenyl)methylene]-2-thioxo-4-thiazolidinone], the “relative potency (CFTR inhibitory activity)” value in data set [14] is recorded as 0.70.

Take `O=C(O)c1ccccc1C=C1SC(=S)N(c2ccccc2C(F)(F)F)C1=O` [2, 4, 3-[(a-trifluoromethyl)phenyl]-5-[(b-carboxyphenyl)methylene]-2-thioxo-4-thiazolidinone]: the “relative potency (CFTR inhibitory activity)” value in data set [14] is reported as 0.66.

Take `O=C(O)c1ccccc1C=C1SC(=S)N(c2ccccc2C(F)(F)F)C1=O` [3, 2, 3-[(a-trifluoromethyl)phenyl]-5-[(b-carboxyphenyl)methylene]-2-thioxo-4-thiazolidinone]: in [14], the “relative potency (CFTR inhibitory activity)” value was found to be 0.74.

With `O=C(O)c1ccccc1C=C1SC(=S)N(c2ccccc2C(F)(F)F)C1=O` [3, 3, 3-[(a-trifluoromethyl)phenyl]-5-[(b-carboxyphenyl)methylene]-2-thioxo-4-thiazolidinone], the “relative potency (CFTR inhibitory activity)” value in data set [14] amounted to 0.90.

Regarding `O=C(O)c1ccccc1C=C1SC(=S)N(c2ccccc2C(F)(F)F)C1=O` [4, 2, 3-[(a-trifluoromethyl)phenyl]-5-[(b-carboxyphenyl)methylene]-2-thioxo-4-thiazolidinone], the “relative potency (CFTR inhibitory activity)” value in [14] is on record as 0.67.

`O=C(O)c1ccccc1C=C1SC(=S)N(c2ccccc2C(F)(F)F)C1=O` [4, 3, 3-[(a-trifluoromethyl)phenyl]-5-[(b-carboxyphenyl)methylene]-2-thioxo-4-thiazolidinone]: the “relative potency (CFTR inhibitory activity)” value in data set [14] is given as 0.64.

For the molecule `O=C(O)c1ccccc1C=C1SC(=S)N(c2ccccc2C(F)(F)F)C1=O` [4, 4, 3-[(a-trifluoromethyl)phenyl]-5-[(b-carboxyphenyl)methylene]-2-thioxo-4-thiazolidinone], in data set [14], the “relative potency (CFTR inhibitory activity)” value stood at 0.56.

As to `O=C(O)Oc1ccc(/C=C2\SC(=O)N(c3cccc(C(F)(F)F)c3)C2=S)cc1` [CFTRinh-029, 3-[(3-trifluoromethyl)phenyl]-5-[(4-oxycarboxyphenyl)methylene]-2-thioxo-4-thiazolidinone], the “relative potency (CFTR inhibitory activity)” value in data set [14] is reported as 0.3.

In the case of `O=C1S/C(=C\c2ccc(O)c(O)c2)C(=S)N1c1cccc(C(F)(F)F)c1` [CFTRinh-185, 3-[(3-trifluoromethyl)phenyl]-5-[(3,4-dihydroxyphenyl)methylene]-2-thioxo-4-thiazolidinone], in data set [14], the “relative potency (CFTR inhibitory activity)” value is 0.2.

Consider `O=C(O)c1ccccc1C=C1SC(=S)N(c2ccccc2C(F)(F)F)C1=O` [a=2, b=2, 3-[(a-trifluoromethyl)phenyl]-5-[(b-carboxyphenyl)methylene]-2-thioxo-4-thiazolidinone], for which the “relative potency (CFTR inhibitory activity)” value in data set [14] is 0.69.

For `COc1ccc(CCN(C)CCCC(C#N)(c2ccc(OC)c(OC)c2)C(C)C)cc1OC` (stereo not drawn) [verapamil, reference compound], the vincristine accumulation result in data set [6] (100 μM) was “strongly increased”.

These data come from US20040063695A1, “Cystic fibrosis transmembrane conductance regulator protein inhibitors and uses thereof” (priority 2002, published 2004).
